Experimental data as given in patent US20260053811A1, “METHODS OF TREATING HYPERTENSION IN OBESE SUBJECTS” (Mineralys Therapeutics, Inc., priority 2022, published 2026).
Where “and” joins values, the source holds several entries; their conditions need not be identical. Identical values can stand only once.

Legend:
serum cortisol = test: Serum cortisol (pharmacodynamic response); assay type: in vivo, human; details: for Serum cortisol percent change from baseline / Cortisol, Mean Observed / Cortisol, Mean Percent Change from Baseline: Part 2; for Serum cortisol percent change from baseline, range across active arms / Cortisol, Mean (SD) Observed / Cortisol, Mean (SD) Percent Change from Baseline: Part 1
From the text: PK/PD Analysis Set includes all subjects in the SAF who have sufficient data available for the analysis of pharmacokinetic and pharmacodynamic measurements. In the analyses based on PKPD, subjects will be analyzed according to the actual treatment received.

hypertensive subjects = test: Estimated glomerular filtration rate (eGFR, CKD-EPI equation); assay type: in vivo, human; details: Part 1
Procedure: In contrast, mean eGFR for the Placebo group was relatively stable throughout treatment, reaching a mean maximal reduction of −2.80 mL/min/1.73 m^2 at Week 2 (range: −0.83 mL/min/1.73 m^2 to −2.80 mL/min/1.73 m^2). Estimated glomerular filtration rate was estimated using the CKD-EPI equation.

SMILES: CC(=O)N[C@H]1CC[C@H](NC(=O)CN2CCN(c3nncc(-c4ccc(C)cc4)n3)CC2)CC1 [Compound A HBr]
- Serum cortisol percent change from baseline (serum cortisol; 100 mg QD, Week 4): 20.1%
- Serum cortisol percent change from baseline (serum cortisol; 100 mg QD, Week 8): 153.4%
- Serum cortisol percent change from baseline (serum cortisol; 100 mg QD, Week 12): 1.5%
- Serum cortisol percent change from baseline, range across active arms (serum cortisol; Week 4): 3.8% to 19.2%
- Serum cortisol percent change from baseline, range across active arms (serum cortisol; Week 8): 20.6% to 51.4%
- Serum cortisol percent change from baseline, range across active arms (serum cortisol; Week 12, listed as lorundrostat): −1.2% to 22.7% and −1.2 to 22.6%
- Cortisol, Mean (SD) Observed (serum cortisol; Wk 4, 12.5 mg BID): 10.895 (3.859) μg/dL
- Cortisol, Mean (SD) Percent Change from Baseline (serum cortisol; Wk 4, 12.5 mg BID): 10.26 (45.03) %
- Cortisol, Mean (SD) Observed (serum cortisol; Wk 4, 12.5 mg QD): 9.305 (4.164) μg/dL
- Cortisol, Mean (SD) Percent Change from Baseline (serum cortisol; Wk 4, 12.5 mg QD): 7.47 (37.82) %
- Cortisol, Mean (SD) Observed (serum cortisol; Wk 4, 25 mg BID): 12.311 (5.180) μg/dL
- Cortisol, Mean (SD) Percent Change from Baseline (serum cortisol; Wk 4, 25 mg BID): 19.20 (49.39) %
- Cortisol, Mean (SD) Observed (serum cortisol; Wk 4, 50 mg QD): 10.875 (3.368) μg/dL
- Cortisol, Mean (SD) Percent Change from Baseline (serum cortisol; Wk 4, 50 mg QD): 3.83 (32.48) %
- Cortisol, Mean (SD) Observed (serum cortisol; Wk 4, 100 mg QD): 11.842 (4.350) μg/dL
- Cortisol, Mean (SD) Percent Change from Baseline (serum cortisol; Wk 4, 100 mg QD): 3.91 (32.33) %
- Cortisol, Mean (SD) Observed (serum cortisol; Wk 8, 12.5 mg BID): 12.316 (7.649) μg/dL
- Cortisol, Mean (SD) Percent Change from Baseline (serum cortisol; Wk 8, 12.5 mg BID): 20.56 (73.01) %
- Cortisol, Mean (SD) Observed (serum cortisol; Wk 8, 12.5 mg QD): 12.511 (8.784) μg/dL
- Cortisol, Mean (SD) Percent Change from Baseline (serum cortisol; Wk 8, 12.5 mg QD): 41.84 (90.37) %
- Cortisol, Mean (SD) Observed (serum cortisol; Wk 8, 25 mg BID): 15.525 (8.258) μg/dL
- Cortisol, Mean (SD) Percent Change from Baseline (serum cortisol; Wk 8, 25 mg BID): 49.57 (77.17) %
- Cortisol, Mean (SD) Observed (serum cortisol; Wk 8, 50 mg QD): 15.650 (7.102) μg/dL
- Cortisol, Mean (SD) Percent Change from Baseline (serum cortisol; Wk 8, 50 mg QD): 51.35 (78.86) %
- Cortisol, Mean (SD) Observed (serum cortisol; Wk 8, 100 mg QD): 16.680 (9.083) μg/dL
- Cortisol, Mean (SD) Percent Change from Baseline (serum cortisol; Wk 8, 100 mg QD): 47.29 (92.65) %
- Cortisol, Mean (SD) Observed (serum cortisol; Wk 12, 12.5 mg BID): 9.978 (2.742) μg/dL
- Cortisol, Mean (SD) Percent Change from Baseline (serum cortisol; Wk 12, 12.5 mg BID): −1.22 (21.10) %
- Cortisol, Mean (SD) Observed (serum cortisol; Wk 12, 12.5 mg QD): 9.317 (3.294) μg/dL
- Cortisol, Mean (SD) Percent Change from Baseline (serum cortisol; Wk 12, 12.5 mg QD): 18.06 (48.59) %
- Cortisol, Mean (SD) Observed (serum cortisol; Wk 12, 25 mg BID): 12.559 (4.287) μg/dL
- Cortisol, Mean (SD) Percent Change from Baseline (serum cortisol; Wk 12, 25 mg BID): 22.65 (41.94) %
- Cortisol, Mean (SD) Observed (serum cortisol; Wk 12, 50 mg QD): 11.262 (3.590) μg/dL
- Cortisol, Mean (SD) Percent Change from Baseline (serum cortisol; Wk 12, 50 mg QD): 6.91 (35.36) %
- Cortisol, Mean (SD) Observed (serum cortisol; Wk 12, 100 mg QD): 12.680 (5.659) μg/dL
- Cortisol, Mean (SD) Percent Change from Baseline (serum cortisol; Wk 12, 100 mg QD): 8.40 (30.09) %
- Cortisol, Mean Observed (serum cortisol; Wk 4, 100 mg QD): 13.464 µg/dL
- Cortisol, Mean Percent Change from Baseline (serum cortisol; Wk 4, 100 mg QD): 20.10%
- Cortisol, Mean Observed (serum cortisol; Wk 8, 100 mg QD): 25.393 µg/dL
- Cortisol, Mean Percent Change from Baseline (serum cortisol; Wk 8, 100 mg QD): 153.35%
- Cortisol, Mean Observed (serum cortisol; Wk 10, 100 mg QD): 10.763 µg/dL
- Cortisol, Mean Percent Change from Baseline (serum cortisol; Wk 10, 100 mg QD): 1.45%
- Effects on serum cortisol (serum cortisol; pooled (Part 1 and Part 2) 100 mg QD safety set (n=60)): no effects on serum cortisol
- Effects on serum cortisol (serum cortisol; safety dataset, complete analysis): no effects on serum cortisol
- Morning serum cortisol levels (serum cortisol; summary of trial): modestly increased
- eGFR mean maximum decline relative to baseline (hypertensive subjects; 100 mg QD, Week 2): 10.91 mL/min/1.73 m^2
- Estimated Glomerular Filtration Rate, Mean (SD) Change from Baseline (hypertensive subjects; Week 1, 12.5 mg BID): −2.25 (8.42) mL/min/1.73 m^2
- Estimated Glomerular Filtration Rate, Mean (SD) Observed (hypertensive subjects; Week 1, 12.5 mg BID): 79.45 (15.19) mL/min/1.73 m^2
- Estimated Glomerular Filtration Rate, Mean (SD) Change from Baseline (hypertensive subjects; Week 1, 12.5 mg QD): −4.30 (7.14) mL/min/1.73 m^2
- Estimated Glomerular Filtration Rate, Mean (SD) Observed (hypertensive subjects; Week 1, 12.5 mg QD): 73.57 (20.33) mL/min/1.73 m^2
- Estimated Glomerular Filtration Rate, Mean (SD) Change from Baseline (hypertensive subjects; Week 1, 25 mg BID): −6.85 (8.88) mL/min/1.73 m^2
- Estimated Glomerular Filtration Rate, Mean (SD) Observed (hypertensive subjects; Week 1, 25 mg BID): 74.00 (13.13) mL/min/1.73 m^2
- Estimated Glomerular Filtration Rate, Mean (SD) Change from Baseline (hypertensive subjects; Week 1, 50 mg QD): −2.96 (8.52) mL/min/1.73 m^2
- Estimated Glomerular Filtration Rate, Mean (SD) Observed (hypertensive subjects; Week 1, 50 mg QD): 74.21 (16.88) mL/min/1.73 m^2
- Estimated Glomerular Filtration Rate, Mean (SD) Change from Baseline (hypertensive subjects; Week 1, 100 mg QD): −6.80 (10.03) mL/min/1.73 m^2
- Estimated Glomerular Filtration Rate, Mean (SD) Observed (hypertensive subjects; Week 1, 100 mg QD): 70.81 (17.66) mL/min/1.73 m^2
- Estimated Glomerular Filtration Rate, Mean (SD) Change from Baseline (hypertensive subjects; Week 2, 12.5 mg BID): −3.69 (6.46) mL/min/1.73 m^2
- Estimated Glomerular Filtration Rate, Mean (SD) Observed (hypertensive subjects; Week 2, 12.5 mg BID): 78.86 (18.56) mL/min/1.73 m^2
- Estimated Glomerular Filtration Rate, Mean (SD) Change from Baseline (hypertensive subjects; Week 2, 12.5 mg QD): −4.87 (5.03) mL/min/1.73 m^2
- Estimated Glomerular Filtration Rate, Mean (SD) Observed (hypertensive subjects; Week 2, 12.5 mg QD): 73.00 (20.81) mL/min/1.73 m^2
- Estimated Glomerular Filtration Rate, Mean (SD) Change from Baseline (hypertensive subjects; Week 2, 25 mg BID): −5.42 (10.01) mL/min/1.73 m^2
- Estimated Glomerular Filtration Rate, Mean (SD) Observed (hypertensive subjects; Week 2, 25 mg BID): 75.43 (15.32) mL/min/1.73 m^2
- Estimated Glomerular Filtration Rate, Mean (SD) Change from Baseline (hypertensive subjects; Week 2, 50 mg QD): −4.32 (9.06) mL/min/1.73 m^2
- Estimated Glomerular Filtration Rate, Mean (SD) Observed (hypertensive subjects; Week 2, 50 mg QD): 72.86 (16.55) mL/min/1.73 m^2
- Estimated Glomerular Filtration Rate, Mean (SD) Change from Baseline (hypertensive subjects; Week 2, 100 mg QD): −10.91 (8.57) mL/min/1.73 m^2
- Estimated Glomerular Filtration Rate, Mean (SD) Observed (hypertensive subjects; Week 2, 100 mg QD): 65.56 (17.66) mL/min/1.73 m^2
- Estimated Glomerular Filtration Rate, Mean (SD) Change from Baseline (hypertensive subjects; Week 3, 12.5 mg BID): −5.17 (8.54) mL/min/1.73 m^2
- Estimated Glomerular Filtration Rate, Mean (SD) Observed (hypertensive subjects; Week 3, 12.5 mg BID): 77.38 (16.68) mL/min/1.73 m^2
- Estimated Glomerular Filtration Rate, Mean (SD) Change from Baseline (hypertensive subjects; Week 3, 12.5 mg QD): −2.05 (6.43) mL/min/1.73 m^2
- Estimated Glomerular Filtration Rate, Mean (SD) Observed (hypertensive subjects; Week 3, 12.5 mg QD): 77.21 (20.38) mL/min/1.73 m^2
- Estimated Glomerular Filtration Rate, Mean (SD) Change from Baseline (hypertensive subjects; Week 3, 25 mg BID): −5.90 (8.63) mL/min/1.73 m^2
- Estimated Glomerular Filtration Rate, Mean (SD) Observed (hypertensive subjects; Week 3, 25 mg BID): 75.07 (11.95) mL/min/1.73 m^2
